Data from ChEMBL document CHEMBL2384918, “Identification of Selective Nanomolar Inhibitors of the Human Neuraminidase, NEU4” (ACS Med Chem Lett, 2013).

Assays:
Sialidase-1 = Sialidase-1 (Homo sapiens, UniProt Q99519); assay: Inhibition of human NEU1 using 4-MU-NANA as substrate preincubated for 15 mins before substrate addition measured after 30 mins by fluorescence plate reader analysis
Sialidase-3 = biological target: T1, Sialidase-3 (Homo sapiens, UniProt Q9UQ49); assay: Inhibition of human NEU3 using 4-MU-NANA as substrate preincubated for 15 mins before substrate addition measured after 30 mins by fluorescence plate reader analysis
T1 sequence (Q9UQ49 whole entry): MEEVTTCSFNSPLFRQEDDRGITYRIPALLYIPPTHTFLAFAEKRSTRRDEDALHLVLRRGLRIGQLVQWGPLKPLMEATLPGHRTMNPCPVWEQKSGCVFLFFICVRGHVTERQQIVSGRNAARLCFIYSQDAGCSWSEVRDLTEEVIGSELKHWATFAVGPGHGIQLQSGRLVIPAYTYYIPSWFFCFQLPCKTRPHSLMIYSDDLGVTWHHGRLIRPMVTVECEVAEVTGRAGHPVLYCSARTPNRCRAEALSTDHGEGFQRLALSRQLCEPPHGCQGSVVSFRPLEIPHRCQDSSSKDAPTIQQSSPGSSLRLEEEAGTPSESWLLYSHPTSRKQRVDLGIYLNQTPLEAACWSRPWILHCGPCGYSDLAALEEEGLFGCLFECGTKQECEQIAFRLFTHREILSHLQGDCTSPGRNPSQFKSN

Sialidase-4 [1] = biological target: T2, Sialidase-4 (Homo sapiens, UniProt Q8WWR8); assay: Inhibition of human NEU4 using 4-MU-NANA as substrate preincubated for 15 mins before substrate addition measured after 30 mins by fluorescence plate reader analysis
T2 sequence (Q8WWR8 whole entry): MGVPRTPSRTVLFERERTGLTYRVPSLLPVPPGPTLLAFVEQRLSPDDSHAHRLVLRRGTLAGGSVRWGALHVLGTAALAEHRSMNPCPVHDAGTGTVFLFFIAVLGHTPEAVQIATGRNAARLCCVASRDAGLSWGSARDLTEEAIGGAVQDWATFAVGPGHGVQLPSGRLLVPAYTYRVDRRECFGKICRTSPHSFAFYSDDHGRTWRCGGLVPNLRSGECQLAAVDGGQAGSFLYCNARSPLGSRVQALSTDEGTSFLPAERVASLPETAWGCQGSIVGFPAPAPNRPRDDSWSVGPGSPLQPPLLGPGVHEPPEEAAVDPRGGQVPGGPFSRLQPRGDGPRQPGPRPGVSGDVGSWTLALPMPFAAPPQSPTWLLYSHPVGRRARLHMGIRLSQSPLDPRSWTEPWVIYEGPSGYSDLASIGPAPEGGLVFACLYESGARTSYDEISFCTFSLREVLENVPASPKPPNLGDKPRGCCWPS

Sialidase-4 [2] = biological target: T2, Sialidase-4; assay: Inhibition of human NEU4 using 4-MU-NANA as substrate measured every 30 seconds for 60 mins by fluorescence plate reader analysis

Row | SMILES | IC50 (Sialidase-1) [µM] | IC50 (Sialidase-3) [µM] | IC50 (Sialidase-4 [1]) [µM] | Ki (Sialidase-4 [2]) [µM]
1 | CC(=O)N[C@H]1[C@H]([C@H](O)[C@H](O)Cn2cc(CO)nn2)OC(C(=O)O)=C[C@@H]1O | > 1000 | 80 |  | 
2 | CC(=O)N[C@H]1[C@H]([C@H](O)[C@H](O)Cn2cc(COc3ccccc3)nn2)OC(C(=O)O)=C[C@@H]1O | > 1000 | 5.5 | 1.7 | 
3 | CC(=O)N[C@H]1[C@H]([C@H](O)[C@H](O)Cn2cc(CCO)nn2)OC(C(=O)O)=C[C@@H]1O | > 1000 | 38 | 0.81 | 0.06
4 | CC(=O)N[C@H]1[C@H]([C@H](O)[C@H](O)Cn2cc(CCCO)nn2)OC(C(=O)O)=C[C@@H]1O | 660 | 39 | 2.1 | 
5 | CC(=O)N[C@H]1[C@H]([C@H](O)[C@H](O)Cn2cc(C(C)(C)O)nn2)OC(C(=O)O)=C[C@@H]1O | > 1000 |  | 4 | 
6 | O=C(Cn1cc(-c2ccccc2)nn1)N[C@H]1[C@H]([C@H](O)[C@H](O)CO)OC(C(=O)O)=C[C@@H]1O | > 1000 | > 1000 | 250 | 
7 | CC(=O)N[C@H]1[C@H]([C@H](O)[C@H](O)Cn2cc(-c3ccccc3)nn2)OC(C(=O)O)=C[C@@H]1O | > 200 | 4.6 | 2.3 | 

Continued by falling IC50 (Sialidase-1), values first:

Row | IC50 (Sialidase-1) [µM] | IC50 (Sialidase-3) [µM] | IC50 (Sialidase-4 [1]) [µM] | Ki (Sialidase-4 [2]) [µM] | SMILES
8 | 620 | 19.7 | 60 |  | CC(=O)N[C@H]1[C@H]([C@H](O)[C@H](O)CN=[N+]=[N-])OC(C(=O)O)=C[C@@H]1O
9 | 170 | 90 | 3.6 |  | CCOc1cn(C[C@@H](O)[C@@H](O)[C@@H]2OC(C(=O)O)=C[C@H](O)[C@H]2NC(C)=O)nn1
10 | 29 | 4.7 | 4.5 |  | [N-]=[N+]=NCC(=O)N[C@H]1[C@H]([C@H](O)[C@H](O)CO)OC(C(=O)O)=C[C@@H]1O
